Structures are written as SMILES. Structures can show the parent of a compound that is named as a salt. Where two headings read alike, the source gives them in different places.

The subject of assay [1] is Proteus vulgaris SRI 180. As to the kind of experiment: Agar disc diffusion assay. Type of assay: cell-based. The conditions noted are these: 240 ug/disc, about 24 hr at 37° C., 0 = no measurable zone; for zone of inhibition at 240 µg/disc: Proteus vulgaris, SRI180, read-out: Diameter of the zone of inhibition, P. vulgaris. Here is the method: (§1) The activity of the compounds is determined using the following assay. The compound is dissolved in DMSO at a concentration of 6 mg/ml and then diluted with water to a final concentration of 3 mg/ml in 50% DMSO (% DMSO was shown not to be inhibitory to the test organisms). An aliquot (0.08 ml) of each drug solution was transferred to filter paper discs (12.7 mm diameter, Scmeicherand Schuell) for use in the agar diffusion assay. The concentration of each drug on the filter paper disc was 240 ug/disc. The test organisms included the following: Gram-positive aerobes (Staphylococcus aureus SRI 1323, Streptococcus pneumoniae SRI 1167); Gram-negative aerobe (Proteus vulgaris SRI 180); and the yeast Candida albicans SRI 523. An agar disc diffusion assay was used to evaluate the antimicrobial activity of the test compounds. Briefly, cultures were prepared from 16-20 hr agar slant cultures by inoculating in physiological saline to a turbidity equivalent to a #0.5 McFarland turbidity standard for the bacteria and a #3 McFarland standard for C. albicans. The surface of Mueller-Hinton agar (15×100 mm plates, mm) were evenly inoculated with each standardized culture using a cotton swab. Filter paper discs containing the drug concentration listed above were then placed on the inoculated agar plates along with a disc containing the solvent used to dissolve each drug. The plates were incubated at 37° C. for about 24 hr and the diameters of the zones of inhibition measured with a vernier caliper. Positive control drugs consisted of streptomycin for use with the bacterial strains and 5-fluorocytosine for use with C. albicans. The positive control drugs were assayed as described above for the compounds of the present invention using the same concentration.
On the technique in general: In agar diffusion tests the substance spreads into inoculated agar from a disc or well.

For assay [2], the system named is Streptococcus pneumoniae SRI 1167. As to the kind of experiment: Agar disc diffusion assay. The conditions noted are these: 240 ug/disc, about 24 hr at 37° C., + = zone too large to measure; for zone of inhibition at 240 µg/disc: Streptococcus pneumoniae, SRI1167, read-out: Diameter of the zone of inhibition, S. pneumoniae. Type of assay: cell-based. The procedure: as §1

For assay [3], the system named is Staphylococcus aureus SRI 1323. Nature of the assay: Agar disc diffusion assay. Type of assay: cell-based. The conditions noted are these: 240 ug/disc, about 24 hr at 37° C.; for zone of inhibition at 240 µg/disc: Staphylococcus aureus, SRI1323, read-out: Diameter of the zone of inhibition, S. aureus. Here is the method: as §1
The test system of assay [4] is Candida albicans SRI 523. As to the kind of experiment: Agar disc diffusion assay. The conditions noted are these: 240 ug/disc, about 24 hr at 37° C.; for zone of inhibition at 240 µg/disc: Candida albicans, SRI523, read-out: Diameter of the zone of inhibition, C. albicans. The assay is classed as cell-based. Here is the method: as §1
For assay [5], the system named is TG3 immunoreactivity in OKA treated MSN1a cells. Nature of the assay: MSN1a cell culture model, ELISA with TG3 antibody, okadaic acid treated cells. The note with it: 1 μM OKA, 2 hrs at 37° C., read-out: IC50 for inhibition of TG3 immunoreactivity in OKA treated MSN1a cells. The assay is classed as cell-based, human. Here is the method:
This assay can thus be used to determine whether a drug is capable of preventing or intervening in AD by attenuating the production of abnormally phosphorylated paired helical filament epitopes associated with AD. To determine whether a drug is capable of preventing or intervening in AD activity, the MSN1a cells containing tau and associated proteins are treated with OKA capable of greatly increasing immunoreactivity of the MSN1a cells with AD specific monoclonal antibodies. Then, either prior to or concomitantly with OKA treatment, a compound of the present invention is added to the culture. If the compound prevents the induction of the AD epitopes in the MSN1a cells treated with OKA, then it is said to have anti-AD activity. If the AD-specific antibodies are highly reactive with the neuroblastoma cells following OKA treatment in the presence of compound, then the compound is said to be ineffectual against AD.
The MSN1a human neuroblastoma line was subcloned from a population of MSN cells obtained from the laboratory of Dr. Peter Davies (Albert Einstein College of Medicine, New York, N.Y.). Cells were grown and maintained in flasks in RPMI 1640 medium, supplemented with 15% fetal calf serum, 100 U/ml penicillin, 100 U/ml Streptomycin, 0.5 ug/ml fungizone under 7.5% CO2 at 37° C.
Stock solutions of drugs were prepared by dissolving the anhydrous powders to final concentrations of either 10 or 20 mM in 50% aqueous or 100% dimethyl sulfoxide (DMSO), respectively. Working solutions of drugs were prepared by dilution of the stock solutions with Kreb's Ringer in Hepes buffer (KRH) (128 mM NaCl, 5 mM KCl, 2.5 mM CaCl2 1.2 mM MgSO4, 1 mM Na2HPO4, 10 mM dextrose, 20 mM Hepes, pH 7.4). OKA is maintained as a 1 mM stock solution in DMSO prior to dilution to 4 μM in KRH.
MSN cells grown in 225 cm^2 flasks are removed from the incubator, their medium decanted and replaced with 50 ml pre-warmed KRH. The cells are harvested by scraping prior to sedimentation at 1000 rpm for 5 min. The supernatants are discarded and the cell pellets are resuspended, the cells counted and diluted to a density of 2×10^4 cells/[…]. The cells are then plated in a 96 well plate at 50 μl/well and 25 μl of 4 μM OKA and 25 μl of drug are then added to the appropriate wells; the entire 96 well plate is then incubated for 2 hrs at 37° C. Depending on the dilution of drug added, this yields individual wells containing 1 μM OKA, 0-64 μM drug and 2×10^4 cells in 0.26% DMSO in KRH. The incubation is terminated by the addition of 20 μl of 6X extraction buffer and immediate freezing at −80° C. for at least one hr. The 6X extraction buffer contains: 25 mM Tris-HCl, pH 7.6, 150 mM NaCl, 5 mM EDTA, 24 mM β-glycerol phosphate, 10 μg/ml APMSF (4-amidinophenylmethane-sulfonyl flouride), and 2.5 μg/ml each of leupeptin, aprotinin, and pepstatin. The plates are thawed in a 37° C. water bath and 20 μl of cell lysate is added to a replica well in an ELISA plate that already contains 80 μl of coating buffer (15 mM Na2CO3 and 35 mM NaHCO3, pH 9.6). The plates are allowed to coat overnight at 4° C. The plates are washed four times with deionized water and then blocked for 30 min at 37° C. with 200 μl/well pre-warmed 1% bovine serum albumin in 10 mM Tris-HCl, pH 7.4, 150 mM NaCl, 3 mM NaN3 (BSA-TBS). After the blocking solution is removed, 100 μl/well of an appropriate dilution of pre-warmed primary antibody (eg., TG3 or PHF-1) in BSA-TBS is added and incubated at 37° C. for 30 min. Incubation is terninated by washing four times in deionized water at which time 100 μl of an appropriate dilution of pre-warmed secondary antibody (conjugated to alkaline phosphatase) in BSA-TBS is added to each well in the ELISA plate. Incubation is performed for 30 min at 37° C. followed by washing 4 times with deionized water. […] of prewarmed chromogenic substrate (1 mg/mnl p-nitrophenyl phosphate in 10% diethanolamine, 3 mM NaN3, 0.5 mM MgCl2, pH 9.8) is added and the plate incubated for 30 min at 37° C. […]

Consider `[H]/N=C(/N)N[C@H]1[C@H](O)[C@@H](O)[C@H](O[C@@H]2O[C@@H](C)[C@](O)(C=O)[C@H]2O[C@@H]2O[C@@H](CO)[C@H](O)[C@@H](O)[C@@H]2NC)[C@@H](N/C(N)=N\[H])[C@@H]1O` [streptomycin, reference compound], for which the zone of inhibition at 240 µg/disc in assay [1] came to 37.6 mm; in assay [2], 39.8 mm; in assay [3] it was 28.4 mm.

Regarding `Cl.Cl.O=C(CCN1CCN(C(c2ccccc2)c2ccc(Cl)cc2)CC1)c1ccc(Br)s1` (centres unmarked) [Example 78, 1(5″-Bromo-2″-thienyl)-3-[4′-(1′″-p-chlorophenyl-1′″-phenylmethyl)-1′-piperazinyl]-1-propanone dihydrochloride], the “Diameter of the zone of inhibition, P. vulgaris” value in assay [1] turned out to be 14.5 mm. Also, the “Diameter of the zone of inhibition, S. pneumoniae” value in assay [2] came out at 19.7 mm. Moreover, the “Diameter of the zone of inhibition, C. albicans” value in assay [4] worked out at 15.2 mm. The “Diameter of the zone of inhibition, S. aureus” value in assay [3] is reported as 16.2 mm.

Turning to `Cl.Cl.O=C(CCN1CCN(Cc2ccccc2)CC1)c1ccc(F)c(Br)c1` [Example 25, 1-(p-Fluoro-m-bromophenyl)-3-(4′-benzyl-1′-piperazinyl)-1-propanone dihydrochloride], the “Diameter of the zone of inhibition, P. vulgaris” value in assay [1] came to 16.0 mm. For the same compound, in assay [2], the “Diameter of the zone of inhibition, S. pneumoniae” value is 36.3 mm. In addition, the “Diameter of the zone of inhibition, C. albicans” value in assay [4] stood at 26.0 mm. In assay [3], the “Diameter of the zone of inhibition, S. aureus” value is recorded as 27.5 mm.

Consider `Cl.O=C(CCN1CCN(C(=O)c2ccccc2C(F)(F)F)CC1)c1ccccc1F` [Example 43], for which the “Diameter of the zone of inhibition, P. vulgaris” value in assay [1] is 15.9 mm. The “Diameter of the zone of inhibition, S. pneumoniae” value in assay [2] was determined as 25.3 mm. The “Diameter of the zone of inhibition, C. albicans” value in assay [4] is given as 22.5 mm. Also, in assay [3], the “Diameter of the zone of inhibition, S. aureus” value is reported as 17.7 mm.

On to `Nc1nc(=O)[nH]cc1F` [5-fluorocytosine, reference compound], for which the zone of inhibition at 240 µg/disc in assay [4] is 33.5 mm.

Take `O=C(CCN1CCN(Cc2ccccc2)CC1)c1nccs1` [Example 76, 1-(2-Thiazolyl)-3-(4′-benzyl-1′-piperazinyl)-1-propanone dihydrochloride]: the zone of inhibition at 240 µg/disc is 20.5 mm in assay [1], 35.5 mm in assay [2], 20.9 mm in assay [4] and 19.3 mm in assay [3]. The IC50 in assay [5] (Homo sapiens) was found to be 10.5 µM.

As to `Cl.Cl.O=C(CCN1CCN(Cc2ccccc2)CC1)c1csc([N+](=O)[O-])c1` [Example 80, 1-(5″-Nitro-3″-thienyl)-3-(4′-benzyl-1′-piperazinyl)-1-propanone dihydrochloride], in assay [1], the “Diameter of the zone of inhibition, P. vulgaris” value amounted to 13.8 mm. For the same compound, in assay [4], the “Diameter of the zone of inhibition, C. albicans” value is 14.5 mm. Further, in assay [3], the “Diameter of the zone of inhibition, S. aureus” value came to 17.2 mm. For the same compound, in assay [5], the IC50 was found to be 5.7 µM.

Regarding `O=C(CCN1CCN(C(=O)c2sc3ccccc3c2Cl)CC1)c1ccc(Br)s1` [Example 86, 1-(5″-Bromo-2″-thienyl)-3-[4′-(3′″-chlorobenzo[b]-2′″-thienoyl)-1′-piperazinyl]-1-propanone dihydrochloride], the zone of inhibition at 240 µg/disc in assay [1] was determined as 13.9 mm; in assay [2] it was 19.3 mm; in assay [4] it was 17.3 mm; in assay [3], 16.2 mm.

The term zone of inhibition denotes the size of the clear area around the sample on an inoculated plate. The term IC50 denotes the concentration that gives 50% inhibition.

These data come from patent US20010025105A1, “Certain substituted 1-aryl-3-piperazine-1'-yl propanones” (Molecular Geriatarics Corporation, priority 1997, published 2001).
